1 substance from patent publication US20080039499A1, “Chemical Compounds” (priority 2004, published 2008) can be followed below.

This experiment relates to MCP-1 Mediated Calcium Flux in THP-1 Cells. Put plainly: MCP-1 mediated calcium flux in THP-1 cells (FLIPR). In kind it is cell-based, human. Conditions: stimulation of THP-1 cells; from dose response curves; read-out: approximate EC50 of hMCP-1 for rise in [Ca2+]i. As for the experimental part:
a) MCP-1 Mediated Calcium Flux in THP-1 Cells
The human monocytic cell line THP-1 was grown in a synthetic cell culture medium RPMI 1640 supplemented with 10% foetal calf serum, 6 mM glutainine and Penicillin-Streptomycin (at 50 IU/ml penicillin, 50 μg streptomycin/ml, Gibco BRL). THP-1 cells were washed in assay buffer comprising of HBSS with Ca^2+ and Mg^2+ (without phenol red) (Gibco BRL)+20 mM HEPES+0.71 mg/ml Propenecid+2 mls/litre CaCl2 1M (BDH)+0.3 mg/ml BSA (Sigma) pH 7.4 and resuspended in the same buffer at a density of 1×10^6 cells/ml. The cells were then loaded with assay buffer+[…] FLUO-4 (molecular probes) for 40 min at 37° C., washed twice in assay buffer, and resuspended at 2×10^5 cells/ml. 100 μl of the cell suspension was added to the wells of black clear-bottomed 96 well plates, to give 2×10^4 cells/well. Cells were pelleted by centrifugation and washed with assay buffer. 100 ul of buffer+50 ul of compound was added to wells and incubated for 20 mins at (37° C.). Fluorescence was recorded using a FLIPR (FLuorometric Imaging Plate Reader—Molecular Devices). Cells were stimulated by addition of hMCP-1 to the wells.
Stimulation of THP-1 cells with hMCP-1 induced a rapid, transient rise in [Ca^2+]i in a specific and dose dependent manner. Dose response curves indicated an approximate EC50 of 4 nm. […]
(In general: A change in cytosolic calcium serves as a functional read-out for many receptors and channels.)

Regarding “hMCP-1: human Monocyte chemoattractant protein-1, a C—C chemokine and CCR2 ligand, used to stimulate THP-1 cells”, the EC50 (as a rule, the concentration needed to bring the measured effect to its halfway point) was approximately 4 nM.
